According to ChEMBL document CHEMBL3351796, “Discovery of potent and selective sirtuin 2 (SIRT2) inhibitors using a fragment-based approach” (J Med Chem, 2014):
pIC50: −log10 of the molar value.

Tests used:
[1] = biological target: T1, NAD-dependent protein deacetylase sirtuin-2 (Homo sapiens, UniProt Q8IXJ6); test: Inhibition of full length human SIRT2 expressed in Escherichia coli BL21 (DE3) cells using fluorogenic 7-amino-4-methylcoumarin (AMC)-labeled peptide by fluorescence assay
T1 sequence (Q8IXJ6 whole entry): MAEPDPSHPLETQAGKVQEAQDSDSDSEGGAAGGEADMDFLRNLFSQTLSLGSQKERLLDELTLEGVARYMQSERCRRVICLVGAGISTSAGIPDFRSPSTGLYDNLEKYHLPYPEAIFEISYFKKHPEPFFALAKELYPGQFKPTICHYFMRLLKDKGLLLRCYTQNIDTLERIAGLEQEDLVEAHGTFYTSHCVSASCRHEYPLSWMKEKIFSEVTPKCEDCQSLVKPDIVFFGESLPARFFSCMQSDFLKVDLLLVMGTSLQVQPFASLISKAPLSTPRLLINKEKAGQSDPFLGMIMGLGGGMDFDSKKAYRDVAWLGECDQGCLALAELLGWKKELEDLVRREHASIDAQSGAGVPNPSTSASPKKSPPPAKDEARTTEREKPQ

[2] = Apparent permeability from basolateral to apical side in MDCK2 cells at 25 uM incubated for 15 to 180 mins by HPLC method; format: ADME, cell-based, Canis lupus familiaris, MDCK-II; details: dog, MDCK
MCF7 = test: cells; details: Homo sapiens, MCF7, 48 h
Description: Cytotoxicity against human MCF7 cells assessed as reduction in cell growth incubated for 48 hrs by alamar blue assay

DU-145 = test: cells; details: Homo sapiens, DU-145, 48 h
Description: Cytotoxicity against human DU145 cells assessed as reduction in cell growth incubated for 48 hrs by alamar blue assay

K562 = test: cells; details: Homo sapiens, K562, 48 h
Description: Cytotoxicity against human K562 cells assessed as reduction in cell growth incubated for 48 hrs by alamar blue assay

[3] = Apparent permeability from apical to basolateral side in MDCK2 cells at 25 uM incubated for 15 to 180 mins by HPLC method; format: ADME, cell-based, Canis lupus familiaris, MDCK-II; details: dog, MDCK

- pIC50 [1]: 7.32
- Papp B→A at 25 µM [2]: 4.35 ×10⁻⁶ cm/s
- Papp A→B at 25 µM [3]: 3.84 ×10⁻⁶ cm/s
SMILES: NC(=O)c1cncc(Oc2cccc3c(NC(=O)c4ccccc4)cccc23)c1
- CC50 (MCF7): 30.6 µM
- CC50 (DU-145): 33.3 µM
- CC50 (K562): 26.2 µM
